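Method: 48-hour compound exposure of cells in 96-well plates, five concentrations, linear interpolation of endpoints. GI50 is the concentration that inhibits growth by half.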 Activity calls are given as the source filed them. No stated cut-off is given here; in the data, active = GI50 up to about 1.1 µM and inactive = higher.
What was measured:
Test in all cases: growth of human tumour cells (NCI), 48 h
[1] = test system: CAKI-1
[2] = test system: HCT-116
[3] = test system: SK-MEL-28
[4] = test system: OVCAR-8
[5] = test system: UACC-257
[6] = test system: A498
[7] = test system: ACHN
[8] = test system: SF-268
[9] = test system: CCRF-CEM
[10] = test system: HOP-92
[11] = test system: KM12
[12] = test system: RPMI-8226
[13] = test system: SN12C
[14] = test system: 786-0
[15] = test system: MDA-MB-231
[16] = test system: UO-31
[17] = test system: MDA-MB-435
[18] = test system: DU-145
[19] = test system: MOLT-4
[20] = test system: SW-620
[21] = test system: Hs-578T
[22] = test system: UACC-62
[23] = test system: HCT-15
[24] = test system: COLO 205
[25] = test system: RXF 393
[26] = test system: U-251
[27] = test system: SNB-75
[28] = test system: EKVX
[29] = test system: MCF7
[30] = test system: SNB-19
[31] = test system: TK-10
[32] = test system: HT-29
[33] = test system: HL-60
[34] = test system: LOX IMVI
[35] = test system: BT-549
[36] = test system: T47D
[37] = test system: SK-OV-3
[38] = test system: IGROV-1
[39] = test system: MDA-N
[40] = test system: SK-MEL-5

Which results are given for `CNc1nncc2[nH]cnc12`?
GI50 [1]: > 100 µM (inactive); GI50 [2]: > 100 µM (inactive); GI50 [3]: > 100 µM (inactive); GI50 [4]: > 100 µM (inactive); GI50 [5]: > 100 µM (inactive); GI50 [6]: > 100 µM (inactive); GI50 [7]: > 100 µM (inactive); GI50 [8]: > 100 µM (inactive); GI50 [9]: > 100 µM (inactive); GI50 [10]: > 100 µM (inactive); GI50 [11]: > 100 µM (inactive); GI50 [12]: > 100 µM (inactive); GI50 [13]: > 100 µM (inactive); GI50 [14]: > 100 µM (inactive); GI50 [15]: > 100 µM (inactive); GI50 [16]: > 100 µM (inactive); GI50 [17]: > 100 µM (inactive); GI50 [18]: > 100 µM (inactive); GI50 [19]: > 100 µM (inactive); GI50 [20]: > 100 µM (inactive); GI50 [21]: > 100 µM (inactive); GI50 [22]: > 100 µM (inactive); GI50 [23]: > 100 µM; GI50 [24]: > 100 µM (inactive); GI50 [25]: > 100 µM (inactive); GI50 [26]: > 100 µM (inactive); GI50 [27]: > 100 µM (inactive); GI50 [28]: > 100 µM (inactive); GI50 [29]: > 100 µM (inactive); GI50 [30]: > 100 µM (inactive); GI50 [31]: > 100 µM (inactive); GI50 [32]: > 100 µM (inactive); GI50 [33]: 32.4 µM (inactive); GI50 [34]: > 100 µM (inactive); GI50 [35]: > 100 µM (inactive); GI50 [36]: > 100 µM (inactive); GI50 [37]: > 100 µM (inactive); GI50 [38]: > 100 µM (inactive); GI50 [39]: > 100 µM (inactive); GI50 [40]: > 100 µM (inactive)
